According to patent publication US10845371B2, “Soluble MANF in pancreatic beta-cell disorders” (University of Massachusetts, priority 2012, dated 2020):

Columns and labels:
[1] = tested on: INS-1 832/13 cells; experiment: Percentage of dead cells in thapsigargin-treated INS-1 832/13 cells; format: cell-based, rat
Experimental: (§1) FIG. 38 is two graphs showing the percentage of dead cells (left graph) or the median MEROS-GFP ratio (right graph) of INS-1 832/13 cells treated with DMSO alone, 10 nM thapsigargin (Tg), 10 nM Tg and 10 μM pioglitazone, or 10 nM Tg and 500 μg/mL tauroursodeoxycholic acid (TUDCA).
FIG. 43 is a graph of the percentage of dead cells following no treatment or treatment with 10 nM thapsigargin (Tg) or treatment with 10 nM Tg and 10 nM apomorphine.

[2] = tested on: MEROS-GFP (ER redox state) in INS-1 832/13 cells; experiment: Median MEROS-GFP ratio in thapsigargin-treated INS-1 832/13 cells; format: cell-based, rat; details: 10 nM thapsigargin; 10 μM pioglitazone or 500 μg/mL TUDCA, FIG. 38 right panel
Experimental: as §1
To investigate this possibility, two FDA-approved drugs, pioglitazone (Actos) and tauroursodeoxycholic acid (TUDCA), could affect the ER redox state and ameliorate cell death in cellular models of ER diseases. […] Another small molecule, TUDCA, has been used for treatment of gallstones and biliary cirrhosis and shown to mitigate ER stress in mouse models of diabetes.

[3] = tested on: INS-1 832/13 cells expressing MEROS-GFP; experiment: Reduced-ER cell population (MEROS-GFP FACS) after palmitate challenge; format: cell-based, rat; details: apomorphine 24 hours (10 μM per FIG. 40), then 0.5 mM palmitate 24 hours
[4] = tested on: INS-1 832/13 cells; experiment: Mitochondrial membrane potential (MitoProbe staining) after palmitate; format: cell-based, rat; details: 0.5 mM palmitate; 10 nM or 50 nM apomorphine, FIGS. 41 and 42
[5] = tested on: human islets; experiment: Thapsigargin-mediated cell death in primary human islets (cleaved caspase 3 / PARP immunoblot); format: cell-based; details: 10 nM thapsigargin; 10 nM apomorphine or 10 μM pioglitazone, FIG. 44
Experimental: (§2) FIG. 44 are two immunoblots showing the amount of cleaved caspase 3 (c-caspase3) and cleaved PARP (c-PARP) present in 10 nM thapsigargin-treated primary human islets (right immunoblot) and 2 μM doxycycline-treated WFS1 knockdown INS-1 832/13 cells (shWFS1) (left immunoblot) treated with 10 nM apomorphine or 10 μM pioglitazone.
Additional experiments were performed to determine whether apomorphine and pioglitazone can protect human islets from ER stress-mediated cell death.

[6] = tested on: INS-1 832/13 cells; experiment: Cell viability (propidium iodide) after palmitate; format: cell-based, rat; details: 0.5 mM palmitate and 10 nM apomorphine, FIG. 42
[7] = tested on: WFS1-knockdown β-cells (INS-1 832/13-derived); experiment: Doxycycline-inducible WFS1 knockdown INS-1 832/13 cells, cellular model of Wolfram syndrome; format: cell-based, rat; details: 2 μM doxycycline shWFS1; 10 nM apomorphine or 10 μM pioglitazone, FIG. 44
Experimental: as §2
Additional experiments were performed using INS-1 832/13-derived doxycycline-inducible WFS1 knockdown cells, a cellular model of Wolfram syndrome. This model was used to test whether apomorphine and pioglitazone could prevent cell death.

[8] = tested on: MEROS-GFP (ER redox state) in INS-1 832/13 cells; experiment: MEROS-GFP pilot screen of 1280-compound library and follow-up screens; format: cell-based, rat; details: DTT screen, 0.4 mM palmitate + 20 mM glucose screen, FACS confirmation with 0.5 mM palmitate
Experimental: A pilot screen of a 1280-compound library (MicroSource), a collection of 1,040 U.S. drugs and 240 international drugs (FIG. 39) was performed. In this experiment, INS-1 832/13 cells stably-expressing MEROS-GFP were seeded (20,000 cells/well) in black optical 96-well plates. After 24 hours, 2 μL of each compound was added using the TeMo liquid handling robot. After another 24 hours, cells were challenged with 0.2 mM DTT, a strong reducing agent, for 2 hours, and then the MEROS-GFP ratio was calculated.

[9] = tested on: INS-1 832/13 cells; experiment: Toxicity on INS-1 832/13 cells; format: cell-based, rat
[10] = tested on: INS-1 832/13 cells (a pancreatic β-cell line); experiment: Reduced MEROS-GFP by FACS in INS-1 832/13 cells in high glucose with soluble MANF; format: cell-based, rat; details: 25 mM glucose; 0.5 μg/mL soluble MANF (48 hours per FIG. 45)
Experimental: FIG. 45 is a graph of fluorescence-assisted cell sorting data showing the percentage of INS1 832/13 cells (pancreatic (3 cell line) containing the reduced form of EroGFP in the endoplasmic reticulum following culture in 11 mM glucose or 25 mM glucose (24 hours) (top panels and bottom panels, respectively), and treatment with 0 or 0.5 μg/mL soluble MANF for 48 hours (left panels and right panels, respectively). The cells were excited using a wavelength at 473 nm and an emission spectrum of 510 nm.
Further experiments were performed to determine whether soluble MANF can prevent fluctuations in the redox environment in the endoplasmic reticulum of pancreatic β-cells upon exposure to an agent that induces endoplasmic reticulum stress. Experiments were performed using INS-1 832/13 cells (a pancreatic β-cell line) transfected with a lentivirus vector expressing MEROS-GFP. The cells were cultured in 11 mM or 25 mM glucose, and either left untreated or treated with 0.5 μg/mL soluble MANF. The cells were then analyzed using FACS analysis using an excitation spectrum between 460-495 nm and an emission spectrum of between 520-570 nm (FITC-A optical filter) which allows for the specific detection of fluorescent emission from reduced EroGFP in the transfected cells.

[11] = tested on: mouse pancreatic β-cell line (MIN6); experiment: Cleaved caspase-3 immunoblot in MIN6 cells treated with tunicamycin and soluble MANF; format: cell-based; details: tunicamycin 1 μM, 24 hours; 0, 40 or 200 nM soluble MANF, FIG. 8
Experimental: FIG. 8 is an immunoblot showing the levels of cleaved caspase-3 in a murine pancreatic β-cell line (MIN6) untreated or treated for 24-hours with 1 μM tunicamycin or 100 nM thapsigargin, and further treated with 0, 40, or 200 nM soluble MANF.
Additional experiments were performed to determine whether soluble MANF would decrease or delay endoplasmic reticulum stress-induced apoptosis in pancreatic β-cells treated with an endoplasmic reticulum stress-inducing chemical agent.

C[C@H](CCC(=O)NCCS(=O)(=O)O)[C@H]1CC[C@H]2[C@@H]3[C@@H](O)C[C@@H]4C[C@H](O)CC[C@]4(C)[C@H]3CC[C@]12C [TUDCA, tauroursodeoxycholic acid]
Cell death (percentage of dead cells) ([1]; 10 nM thapsigargin, 10 μM pioglitazone or 500 μg/mL TUDCA, FIG. 38 left panel): protect cells from death under ER stress conditions | ER redox state (median MEROS-GFP ratio) [2]: shift the ER towards an oxidizing environment

CN1CCc2cccc3c2[C@H]1Cc1ccc(O)c(O)c1-3 [apomorphine]
Population of cells that had reduced ER [3]: decreased the population of cells that had reduced ER | Population with lower mitochondrial membrane potential [4]: decreased the population with lower mitochondrial membrane potential | Thapsigargin-mediated cell death [5]: could protect human islets from thapsigargin-mediated cell death | Cell death (percentage of dead cells) ([1]; 10 nM thapsigargin and 10 nM apomorphine, FIG. 43): protected INS-1 832/13 cells from ER stress-mediated cell death | ER stress-induced cell death (propidium iodide) [6]: suppressed ER stress-induced cell death | Cell death of WFS1-knockdown cells [7]: could protect WFS1-knockdown β-cells from cell death | Cleavage of PARP (caspase 3 substrate) [7]: suppressed | Cleavage of caspase 3 [7]: suppressed cleavage of caspase 3

COC1=CC(=O)C[C@@H](C)[C@]12Oc1c(Cl)c(OC)cc(OC)c1C2=O [griseofulvin]
Outcome in the screening assays [8]: positively identified in the screening assays | Toxic effects on cells [9]: strong toxic effects

B1: soluble MANF: soluble mammalian form of mesencephalic astrocyte-derived neurotrophic factor, e.g. human SEQ ID NO: 2; species of tested protein not stated (protein)
chain: LRPGDCEVCISYLGRFYQDLKDRDVTFSPATIENELIKFCREARGKENRLCYYIGATDDAATKIINEVSKPLAHHIPVEKICEKLKKKDSQICELKYDKQIDLSTVDLKKLRVKELKKILDDWGETCKGCAEKSDYIRKINELMPKYAPKAASARTDL
Number of cells containing a detectable level of reduced MEROS-GFP [10]: decrease in the number of cells containing a detectable level of reduced MEROS-GFP | Caspase-3 cleavage [11]: significantly reduced the amount of caspase-3 cleavage
